Where two headings read alike, the source gives them in different places. Marks after values point to notes of the source that are not given here.
Key:
smooth muscle of urethra = assay: Contraction of isolated smooth muscle of urethra (Magnus vessel, cumulative concentration/response curves); format: cell-based, rabbits; settings: for EC50: Oryctolagus cuniculus
Description: (§1) The experiment was conducted using female rabbits of 2 to 3.5 kg body weight.
(§2) The animals were killed by draining the blood out under anesthetizing with pentobarbital (30 mg/kg, by intravenous injection) and smooth muscle of urethra and femoral artery were excised. Each of the excised samples was placed in a Magnus vessel filled with a modified Krebs solution (at 37°C; under mixed gas) and both smooth muscle of urethra and femoral artery were suspended with 1 g load.
(§3) The drug to be tested was accumulated to contract the samples whereby the concentration/response curves were obtained wherefrom ED₅₀ (M) and pD₂ were calculated and the selectivity to urethra was determined.

[1] = Acute toxicity, oral, rats; format: in vivo; settings: rat, in vivo, SD rats, read-out: Rats LD₅₀
Description: (§4) Numbers of mice (ddY-strain, male, 6-8 weeks age) and rats (SD strain, male, 6-7 weeks age) in each group were 4 and 6, respectively.
(§5) The drug to be tested was orally administered at the dose of 10 ml/kg using an oral probe to the animals which were fasted since one day before (for 16-18 hours). After giving the drug, the animals were returned to the state where both feed and water were available and the general symptom and the dead cases, if any, were checked for two weeks. The drug was suspended in physiological saline solution containing 0.5% of methylcellulose (0.5% MC) and the suspension was given to the animals by oral route.

rats (SD strain, male) = assay: Acute toxicity, oral, rats; format: in vivo; settings: observed two weeks
Description: as §4, §5

male rabbits [2] = assay: Action to intra urethral pressure and blood pressure, intravenous administration; format: in vivo
Description: (§6) The experiment was conducted using male rabbits of body weight of 1.4-3.1 kg under fasted condition. The animals were fixed at backs under uretrane(1.2g/kg s.c.) anesthesia, abdomen was subjected to a midline incision and bladder was exposed. In order to prevent the urine stored in the bladder on the intra urethral pressure, the urine in the bladder was compulsorily discharged out of the body. After that, a catheter was inserted into both ureters and the urine discharged from kidney was introduced outside.
(§7) The intra urethral pressure(IUP) at the urethra tract of about 0.5-1 cm distance from the neck of the bladder was measured using a microtip transducer transducer equipped with a baloon (filled with physiological saline solution) at the top end. Further, polyethylene tube was inserted into femoral artery to measure the blood pressure (BP).
The drug to be tested was injected into the vein of ear every fifteen minutes and the maximum responses of the increasing action of intra urethral pressure tract and of the increasing action of blood pressure were measured at each dose.

α₁-adrenoceptors = assay: α₁-Adrenoceptor binding assay with [³H]-prazosin, brain membrane; set-up: species or system Rats
Description: Preparation of the receptor membrane was conducted as follows. Rats were decapitated, brain except cerebellum was excised, weighed, 40 times as much 50mM Tris-hydrochloric acid buffer (pH: 7.4) was added and the mixture was homogenized with a Polytron homogenizer and centrifuged for 20 minutes at 39,000 x g. Buffer solution was added to the precipitate and the resulting suspension was again centrifuged for 20 minutes. Then the precipitate was suspended in 40 volumes of Tris-hydrochloric acid buffer to prepare a receptor sample. The above operations were all conducted at 4°C.
α ₁-Adrenoceptor binding assay was conducted as a radioactive ligand using a [³H]-prazosin.
First, the receptor sample prepared as above was incubated in 50 mM Tris-hydrochloric acid buffer (pH 7.4) with [³H]-prazosin (0.2nM) at 25°C for 30 minutes. […] The mixture was allowed to stand at room temperature for not shorter than about 10 hours and the radioactivity was measured with a liquid scintillation counter to give a total binding.
The same reaction as above was conducted in the presence of 1 µM of prazosin as well and the resulting radioactivity was defined as nonspecific binding. […]
The inhibition activity of the test drug to the [³H]-prazosin binding was calculated by measuring the amount of the specific [ ³H] -prazosin binding in the presence of various concentrations of the drug. […]

mice (ddY-strain, male) = assay: Acute toxicity, oral, mice; format: in vivo; settings: observed two weeks
Description: as §4, §5

male rabbits [3] = assay: Action to intra urethral pressure and blood pressure, administration to duodenum; format: in vivo
Description: as §6, §7
Abdomen right above stomach was subjected to a midline incision and, after that, the drug to be tested suspended in 0.5% methyl cellulose (0.5% MC) was administered at the dose of 0.5ml/kg to the duodenum. […] The above administration to duodenum corresponded to oral administration as the administration into digestive organ in anethetized animals.

femoral artery = assay: Contraction of isolated femoral artery (Magnus vessel, cumulative concentration/response curves); format: cell-based, rabbits; settings: Oryctolagus cuniculus
Description: as §1, §2, §3

[4] = 0.1 mg/kg i.d., 10 min after administration
[5] = 0.1 mg/kg i.d., 20 min after administration
[6] = 0.1 mg/kg i.d., 30 min after administration
[7] = 0.1 mg/kg i.d., 60 min after administration
[8] = 0.1 mg/kg i.d., 90 min after administration
[9] = 0.1 mg/kg i.d., 120 min after administration
[10] = 0.1 mg/kg i.d., 180 min after administration
[11] = 0.3 mg/kg i.d., 10 min after administration
[12] = 0.3 mg/kg i.d., 20 min after administration
[13] = 0.3 mg/kg i.d., 30 min after administration
[14] = 0.3 mg/kg i.d., 60 min after administration
[15] = 0.3 mg/kg i.d., 90 min after administration
[16] = 0.3 mg/kg i.d., 120 min after administration
[17] = 0.3 mg/kg i.d., 180 min after administration

In the case of `CS(=O)(=O)Nc1ccc(F)c([C@@H](O)CN)c1.Cl` [(49B), (R)-(-)-3'-(2-Amino-1-hydroxyethyl)-4'-fluoromethanesulfonanilide hydrochloride], the “Selectivity (B/A)” value (smooth muscle of urethra; ED₅₀ femoral artery / ED₅₀ urethra) is reported as 0.73, the EC50 (smooth muscle of urethra; read-out: ED₅₀ Urethra(A)) is reported as 4.41 µM and the EC50 (smooth muscle of urethra; read-out: pD₂ Urethra(A)) is reported as 4.37 µM. For the same compound, the LD50 at 336 h [1] was > 1000 mg/kg, the “Rats Dead/ Total” value (rats (SD strain, male); 500 mg/kg) was 0 / 6 and the “Rats Dead/ Total” value (rats (SD strain, male); 1000 mg/kg) was 0 / 6. For the same compound, the “Selectivity (B/A)” value (male rabbits [2]; BP(ED30%↑) / IUP(ED150%↑), i.v.) was 5.3, the ED (30%) (male rabbits [2]; Oryctolagus cuniculus, iv, read-out: BP(B) [BP(ED30%↑)]) was 0.048 mg/kg and the “inhibiting action to binding of [³H]-prazosin, stronger than amidephrine” value (α₁-adrenoceptors; relative to amidephrine) was “about twice”. For the same compound, the “inhibiting action to binding of [³H]-prazosin, stronger than phenylephrine” value (α₁-adrenoceptors; relative to phenylephrine) was “about five times”, the “Mice Dead/ Total” value (mice (ddY-strain, male); 1000 mg/kg) was 0 / 4 and the “Mice Dead/ Total” value (mice (ddY-strain, male); 3000 mg/kg) was 0 / 4. For the same compound, the “Change(%) BP” value (male rabbits [3]; [4]) was 2.7%, the “Change(%) BP” value (male rabbits [3]; [5]) was 1.9% and the “Change(%) BP” value (male rabbits [3]; [6]) was 3.3%. The “Change(%) BP” value (male rabbits [3]; [7]) was 0.5%, the “Change(%) BP” value (male rabbits [3]; [8]) was -5.0% and the “Change(%) BP” value (male rabbits [3]; [9]) was -9.8%. For the same compound, the “Change(%) BP” value (male rabbits [3]; [10]) was -14.9%, the “Change(%) BP” value (male rabbits [3]; [11]) was 2.8% and the “Change(%) BP” value (male rabbits [3]; [12]) was 4.0%. The “Change(%) BP” value (male rabbits [3]; [13]) was 4.7%, the “Change(%) BP” value (male rabbits [3]; [14]) was 7.9** % and the “Change(%) BP” value (male rabbits [3]; [15]) was 6.5** %. For the same compound, the “Change(%) BP” value (male rabbits [3]; [16]) was 3.3* %, the “Change(%) BP” value (male rabbits [3]; [17]) was -10.0% and the “Change(%) IUP” value (male rabbits [3]; [4]) was 10.5%. For the same compound, the “Change(%) IUP” value (male rabbits [3]; [5]) was 11.0%, the “Change(%) IUP” value (male rabbits [3]; [6]) was 20.7% and the “Change(%) IUP” value (male rabbits [3]; [7]) was 29.4%. The “Change(%) IUP” value (male rabbits [3]; [8]) was 28.9%, the “Change(%) IUP” value (male rabbits [3]; [9]) was 30.3% and the “Change(%) IUP” value (male rabbits [3]; [10]) was 24.1%. The “Change(%) IUP” value (male rabbits [3]; [11]) was 21.5%, the “Change(%) IUP” value (male rabbits [3]; [12]) was 44.2** % and the “Change(%) IUP” value (male rabbits [3]; [13]) was 65.2* %. For the same compound, the “Change(%) IUP” value (male rabbits [3]; [14]) was 84.1** %, the “Change(%) IUP” value (male rabbits [3]; [15]) was 114.9* % and the “Change(%) IUP” value (male rabbits [3]; [16]) was 101.5** %. For the same compound, the “Change(%) IUP” value (male rabbits [3]; [17]) was 95.7** %, the “dose resulting in intraurethral pressure increasing action of the same grade as known amidephrine” value (male rabbits [3]; administration to digestive organ, relative to amidephrine dose) was “about one-tenth” and the EC50 (femoral artery; read-out: ED₅₀ Femoral Artery(B)) was 3.21 µM. It also gave an EC50 (femoral artery; read-out: pD₂ Femoral Artery(B)) of 3.24 µM.

Source: patent EP0538469A1, “SULFONANILIDE DERIVATIVE AND MEDICINE” (NIPPON SHINYAKU COMPANY, LIMITED, priority 1990, dated 1991)
